Test results: US9393232B2 (BeiGene, Ltd., priority 2013, dated 2016)
pEC50, pIC50: −log10 of the molar value. Like-named read-outs stand apart in the source and are kept apart here.

Legend:
[1] = target: Recombinant human BRD4(1-477) (Homo sapiens (Human), UniProt O60885); experiment: BRD4 TR-FRET biochemical IC50 assay; format: binding; conditions: TR-FRET, tetra-acetylated histone peptide; read-out: BRD4 IC50
MV4-11 = MV4-11 (3 Days) EC50; format: cell-based

pEC50 (MV4-11; Homo sapiens, MV4-11, 72 h) | Structure (SMILES) | pIC50 [1] | further results
– | Cc1noc(C)c1-c1ccc2c(c1)C(O)(c1ccccc1)C(=O)N2 (single isomer, unassigned) [Compound 1.1a, 5-(3,5-dimethylisoxazol-4-yl)-3-hydroxy-3-phenylindolin-2-one] | 7.46 | pEC50 (MV4-11; Homo sapiens, 72 h): 7.24
– | Cc1noc(C)c1-c1ccc2c(c1)C(N)(c1ccccc1)C(=O)N2 (single isomer, unassigned) [Compound 2.2a, 3-amino-5-(3,5-dimethylisoxazol-4-yl)-3-phenylindolin-2-one] | 7.62 | pEC50 (MV4-11): 6.80
– | Cc1noc(C)c1-c1ccc2c(c1)C(N)(c1ccccc1)C(=O)N2 (single isomer, unassigned) [Compound 2.2b, 3-amino-5-(3,5-dimethylisoxazol-4-yl)-3-phenylindolin-2-one] | 5.44 | pEC50 (MV4-11): < 5.00
6.55 | Cc1noc(C)c1-c1ccc2c(c1)C(N[C@H](CO)C(C)C)(C1CCCCC1)C(=O)N2 (single isomer, unassigned) [Compound 2.19b] | 6.77 | –
– | Cc1noc(C)c1-c1ccc2c(c1)C(c1ccsc1)(N1CCC[C@@H](N)C1)C(=O)N2 (single isomer, unassigned) [Compound 4.6a] | 7.52 | pEC50 (MV4-11): 6.99
– | Cc1noc(C)c1-c1ccc2c(c1)C(c1ccsc1)(N1CCC[C@@H](N)C1)C(=O)N2 (single isomer, unassigned) [Compound 4.6b] | 7.62 | pEC50 (MV4-11): 7.46
7.27 | Cc1noc(C)c1-c1ccc2c(c1)C(c1ccsc1)(N1CCC[C@@H](O)C1)C(=O)N2 (single isomer, unassigned) [Compound 4.9a] | – | –
– | Cc1noc(C)c1-c1ccc2c(c1)C(c1ccsc1)(N1CCC[C@@H](O)C1)C(=O)N2 (single isomer, unassigned) [Compound 4.9b] | – | pEC50 (MV4-11): 7.41
7.14 | Cc1noc(C)c1-c1ccc2c(c1)C(c1ccsc1)(N1CCC[C@H](O)C1)C(=O)N2 (single isomer, unassigned) [Compound 4.10a] | – | –
– | Cc1noc(C)c1-c1ccc2c(c1)C(c1ccsc1)(N1CCC[C@H](O)C1)C(=O)N2 (single isomer, unassigned) [Compound 4.10b] | – | pEC50 (MV4-11): 7.25
– | Cc1noc(C)c1-c1ccc2c(c1)C(O)(c1ccccc1)C(=O)N2 (centres unmarked) [Compound 1.1, 5-(3,5-dimethylisoxazol-4-yl)-3-hydroxy-3-phenylindolin-2-one] | 7.29 | pEC50 (MV4-11; Homo sapiens, 72 h): 6.91
– | Cc1noc(C)c1-c1ccc2c(c1)C(O)(c1ccc(Cl)cc1)C(=O)N2 (centres unmarked) [Compound 1.2, 3-(4-chlorophenyl)-5-(3,5-dimethylisoxazol-4-yl)-3-hydroxyindolin-2-one] | 6.59 | pEC50 (MV4-11; Homo sapiens, 72 h): 6.44
6.03 | C=CCCC1(O)C(=O)Nc2ccc(-c3c(C)noc3C)cc21 (centres unmarked) [Compound 1.24, 3-(but-3-enyl)-5-(3,5-dimethylisoxazol-4-yl)-3-hydroxyindolin-2-one] | – | –
5.81 | C=CCCCC1(O)C(=O)Nc2ccc(-c3c(C)noc3C)cc21 (centres unmarked) [Compound 1.25, 5-(3,5-dimethylisoxazol-4-yl)-3-hydroxy-3-(pent-4-enyl)indolin-2-one] | – | –
6.51 | Cc1noc(C)c1-c1ccc2c(c1)C(OCCO)(C1CCCCC1)C(=O)N2 (centres unmarked) [Compound 1.33, 3-Cyclohexyl-5-(3,5-dimethylisoxazol-4-yl)-3-(2-hydroxyethoxy)indolin-2-one] | – | –
7.02 | Cc1noc(C)c1-c1ccc2c(c1)C(c1ccccc1)(N1CCCC(O)C1)C(=O)N2 (centres unmarked) [Compound 2.15, 5-(3,5-dimethylisoxazol-4-yl)-3-(3-hydroxypiperidin-1-yl)-3-phenylindolin-2-one] | – | –
6.44 | Cc1noc(C)c1-c1ccc2c(c1)C(c1ccccc1)(N1CCC[C@@H](O)C1)C(=O)N2 (stereo partly drawn) [Compound 2.17, 5-(3,5-dimethylisoxazol-4-yl)-3-((R)-3-hydroxypiperidin-1-yl)-3-phenylindolin-2-one] | – | –

pEC50 (MV4-11; Homo sapiens, MV4-11, 72 h) | Structure (SMILES) | pIC50 [1] | further results
6.69 | Cc1noc(C)c1-c1ccc2c(c1)C(C1CCCCC1)(N1CCN(C)CC1)C(=O)N2 (centres unmarked) [Compound 2.26, 3-cyclohexyl-5-(3,5-dimethylisoxazol-4-yl)-3-(4-methylpieprazin-1-yl)indolin-2-one] | – | –
6.22 | Cc1noc(C)c1-c1ccc2c(c1)C(C1CCCC1)(N1CCN(C)CC1)C(=O)N2 (centres unmarked) [Compound 2.36, 3-cyclopentyl-5-(3,5-dimethylisoxazol-4-yl)-3-(4-methylpiperazin-1-yl)indolin-2-one] | – | –
– | Cc1noc(C)c1-c1ccc2c(c1)C(c1ccccc1)(N1CCN(CCO)CC1)C(=O)N2 (centres unmarked) [Compound 2.48, 5-(3,5-Dimethylisoxazol-4-yl)-3-(4-(2-hydroxyethyl)piperazin-1-yl)-3-phenylindolin-2-one] | 7.10 | –
– | Cc1noc(C)c1-c1ccc2c(c1)C(c1ccccc1)(N1CCN(CCCO)CC1)C(=O)N2 (centres unmarked) [Compound 2.49, 5-(3,5-Dimethylisoxazol-4-yl)-3-(4-(3-hydroxypropyl)piperazin-1-yl)-3-phenylindolin-2-one] | 7.08 | –
– | Cc1noc(C)c1-c1ccc2c(c1)C(c1ccccc1)(N1CCC[C@H]1CO)C(=O)N2 (some centres unmarked) [Compound 2.53, 5-(3,5-Dimethylisoxazol-4-yl)-3-((s)-2-(hydroxymethyl)pyrrolidin-1-yl)-3-phenylindolin-2-one] | 7.05 | –
– | Cc1noc(C)c1-c1ccc2c(c1)C(c1ccccc1)(N1CCC[C@@H]1CO)C(=O)N2 (some centres unmarked) [Compound 2.55, 5-(3,5-Dimethylisoxazol-4-yl)-3-((r)-2-(hydroxymethyl)pyrrolidin-1-yl)-3-phenylindolin-2-one] | 6.96 | –
– | COC(=O)[C@@H](Cc1cnc[nH]1)NC1(c2ccccc2)C(=O)Nc2ccc(-c3c(C)noc3C)cc21 (stereo partly drawn) [Compound 2.56, (2R)-Methyl 2-(5-(3,5-dimethylisoxazol-4-yl)-2-oxo-3-phenylindolin-3-ylamino)-3-(1h-imidazol-5-yl)propanoate] | 6.59 | –
– | COC(=O)[C@H](Cc1cnc[nH]1)NC1(c2ccccc2)C(=O)Nc2ccc(-c3c(C)noc3C)cc21 (stereo partly drawn) [Compound 2.57, (2S)-Methyl 2-(5-(3,5-dimethylisoxazol-4-yl)-2-oxo-3-phenylindolin-3-ylamino)-3-(1h-imidazol-5-yl)propanoate] | 7.05 | –
– | Cc1noc(C)c1-c1ccc2c(c1)C(N)(c1ccc(F)cc1)C(=O)N2 (centres unmarked) [Compound 2.59, 3-amino-5-(3,5-dimethylisoxazol-4-yl)-3-(4-fluorophenyl)indolin-2-one] | 7.01 | –
– | Cc1noc(C)c1-c1ccc2c(c1)C(CC(=O)O)(c1ccccc1)C(=O)N2 (centres unmarked) [Compound 3.4, 2-(5-(3,5-dimethylisoxazol-4-yl)-2-oxo-3-phenylindolin-3-yl)acetic acid] | 5.21 | –
– | CC(=O)CC1(O)C(=O)Nc2ccc(-c3c(C)noc3C)cc21 (centres unmarked) [Compound 4.2, 5-(3,5-dimethylisoxazol-4-yl)-3-hydroxy-3-(2-oxopropyl)indolin-2-one] | 6.17 | –
– | Cc1noc(C)c1-c1ccc2c(c1)C(NCCO)(c1ccsc1)C(=O)N2 (centres unmarked) [Compound 4.3, 5-(3,5-Dimethylisoxazol-4-yl)-3-(2-hydroxyethylamino)-3-(thiophen-3-yl)indolin-2-one] | 7.31 | –
– | Cc1noc(C)c1-c1ccc2c(c1)C(N)(c1ccsc1)C(=O)N2 (centres unmarked) [Compound 4.4, 3-AMINO-5-(3,5-DIMETHYLISOXAZOL-4-YL)-3-(THIOPHEN-3-YL)INDOLIN-2-ONE] | 6.40 | –
– | Cc1noc(C)c1-c1ccc2c(c1)C(c1ccsc1)(N1CCC(O)CC1)C(=O)N2 (centres unmarked) [Compound 4.5, 5-(3,5-DIMETHYLISOXAZOL-4-YL)-3-(4-HYDROXYPIPERIDIN-1-YL)-3-(THIOPHEN-3-YL)INDOLIN-2-ONE] | 7.60 | –
7.38 | Cc1noc(C)c1-c1ccc2c(c1)C(c1ccsc1)(N1CCCC(O)C1)C(=O)N2 (centres unmarked) [Compound 4.8, 5-(3,5-dimethylisoxazol-4-yl)-3-(3-hydroxypiperidin-1-yl)-3-(thiophen-3-yl)indolin-2-one] | – | –
– | Cc1noc(C)c1-c1ccc2c(c1)C(c1ccsc1)C(=O)N2 (centres unmarked) [Compound 4.11, 5-(3,5-Dimethylisoxazol-4-yl)-3-(thiophen-3-yl)indolin-2-one] | 6.92 | –
– | COc1cc(-c2c(C)noc2C)cc2c1NC(=O)C2(O)c1ccccc1 (centres unmarked) [Compound 5.1, 5-(3,5-Dimethylisoxazol-4-yl)-3-hydroxy-7-methoxy-3-phenylindolin-2-one] | 6.35 | –

Structure (SMILES) | pEC50 (MV4-11; Homo sapiens, MV4-11, 72 h) | pIC50 [1] | further results
Cc1noc(C)c1-c1ccc2c(c1)C(N[C@@H](CO)C(C)C)(c1ccccc1)C(=O)N2 (single isomer, unassigned) [Compound 2.11b] | 6.74 | 6.82 | –
Cc1noc(C)c1-c1ccc2c(c1)C(N[C@H](CO)C(C)C)(c1ccccc1)C(=O)N2 (single isomer, unassigned) [Compound 2.12a] | 6.84 | 7.05 | –
Cc1noc(C)c1-c1ccc2c(c1)C(NC[C@@H](C)O)(c1ccccc1)C(=O)N2 (single isomer, unassigned) [Compound 2.13b] | 6.85 | 7.09 | –
Cc1noc(C)c1-c1ccc2c(c1)C(NC[C@H](C)O)(c1ccccc1)C(=O)N2 (single isomer, unassigned) [Compound 2.14a] | 6.94 | 7.11 | –
Cc1noc(C)c1-c1ccc2c(c1)C(N[C@@H](CO)C(C)C)(C1CCCCC1)C(=O)N2 (single isomer, unassigned) [Compound 2.20b] | 6.42 | 6.46 | –
COC(=O)[C@@H]1C[C@@H](O)CN1C1(c2ccccc2)C(=O)Nc2ccc(-c3c(C)noc3C)cc21 (single isomer, unassigned) [Compound 2.50a] | 6.17 | 6.34 | –
Cc1noc(C)c1-c1ccc2c(c1)C(c1ccsc1)(N1CCC[C@H](N)C1)C(=O)N2 (single isomer, unassigned) [Compound 4.7a] | 7.46 | 7.62 | –
Cc1noc(C)c1-c1ccc2c(c1)C(c1ccsc1)(N1CCC[C@H](N)C1)C(=O)N2 (single isomer, unassigned) [Compound 4.7b] | 7.47 | 8.10 | –
Cc1noc(C)c1-c1ccc2c(c1)C(N)(c1ccccc1)C(=O)N2 (centres unmarked) [Compound 2.2, 3-amino-5-(3,5-dimethylisoxazol-4-yl)-3-phenylindolin-2-one] | 6.55 | – | –
